Data taken from US20230174988A1, “METHODS FOR INDUCING BILE ACID SULFOTRANSFERASE SULT2A FOR TREATING METABOLIC DISORDERS” (priority 2020, published 2023).
Entries after “also recorded” stand apart in the source; their conditions may differ. Where two headings read alike, the source gives them in different places.

Experiments:
NF-kB = NF-kB reporter assay in THP1-Blue cells; type: cell-based, human; settings: LPS-induced inflammation
macrophages = experiment: IL-10 secretion from macrophages in vitro; type: cell-based
NCI-H716 cells [1] = experiment: intracellular calcium levels in NCI-H716 cells; type: cell-based, human; settings: NCI-H716 (L-cells)
in vivo = settings: mouse, 1 mg
macrophage = macrophage cell viability; type: cell-based
DIO mice [2] = experiment: acute treatment of DIO mice via duodenal and rectal catheters: GLP-1 and blood glucose; type: in vivo, mouse; settings: HFD-fed (DIO) mice, 1 mg CA7S vs PBS, within 15 min
Caco-2 cells = experiment: cell viability of Caco-2 cells; type: cell-based, human; settings: concentrations up to 3 mM
[3] = stability after incubation at 37° C. in buffer at physiological pHs (UPLC-MS); type: physicochemical
NCI-H716 cells [4] = experiment: GLP-1 secretion in NCI-H716 cells in vitro; type: cell-based, human; settings: for GLP-1 secretion in vitro by CA7S extracted from cecal contents of SG mice: purified CA7S 500 μM vs DMSO
From the text: TGR5 agonism also results in elevated intracellular calcium levels^19.

SULT2A1 = SULT2A1 expression in HepG2 cells (qRT-PCR); type: cell-based; settings: normalized to human GAPDH
TGR5 = target: T1, TGR5 (Homo sapiens, UniProt Q8TDU6); experiment: relative TGR5 expression (FIG. 40); type: cell-based
T1 sequence (Q8TDU6 1-330): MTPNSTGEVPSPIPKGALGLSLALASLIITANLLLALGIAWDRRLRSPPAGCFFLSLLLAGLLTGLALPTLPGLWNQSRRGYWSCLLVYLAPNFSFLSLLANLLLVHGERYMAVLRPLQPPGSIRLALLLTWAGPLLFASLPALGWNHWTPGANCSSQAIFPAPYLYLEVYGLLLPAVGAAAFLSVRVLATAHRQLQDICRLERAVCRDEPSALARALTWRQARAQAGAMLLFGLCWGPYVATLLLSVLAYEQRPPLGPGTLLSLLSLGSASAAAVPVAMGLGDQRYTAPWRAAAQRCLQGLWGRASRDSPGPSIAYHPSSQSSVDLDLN
From the text: FIG. 40B-D show the relative TGR5 expression of the various compounds.

GF mice = GF mice administered 0.3% LCA (w/w) in chow for 1 week; type: in vivo, mouse; settings: 0.3% LCA in chow
ASBT = ASBT expression in Caco-2 cells; type: cell-based, human; design: dose or concentration left out as unconfirmed; settings: LCA
DIO mice [5] = experiment: portal vein injection of LCA in DIO mice; type: in vivo, mouse; settings: LCA 50 μM into portal vein
[6] = HFD-fed mice, acute cholic acid 7-sulfate treatment
[7] = listed as Cholic acid 7-sulfate
[8] = listed as cholic acid 7-sulfate

C[C@H](CCC(=O)O)[C@H]1CC[C@H]2[C@@H]3[C@H](OS(=O)(=O)O)C[C@@H]4C[C@H](O)CC[C@]4(C)[C@H]3C[C@H](O)[C@]12C [CA7S, cholic acid 7-sulfate]
NFkB activation (NF-kB): reduces NFkB activation | IL-10 secretion (macrophages): induces secretion of the anti-inflammatory cytokine IL-10 | Cholic acid 7-sulfate concentration (mean ± SEM), Cecum [6]: 2577 ± 185.3 pmol/mg | Cholic acid 7-sulfate concentration (mean ± SEM), Hepatic portal vein [6]: 6.128 ± 2.111 pmol/mg | CA7S in cecal contents (administration of 1 mg, on average): 2500 pmol/mg wet mass | leak into systemic circulation and portal vein (gut restriction) (ectopic introduction in mice, listed as cholic acid 7-sulfate): only minor amounts | intracellular calcium levels (NCI-H716 cells [1]): dose-dependent increase in calcium levels | intracellular calcium levels (NCI-H716 cells [1]; [7]): increased calcium levels | concentration at 15 min (in vivo; Cholic acid 7-sulfate concentration (mean ± SEM), Blood, HFD-fed mice, acute cholic acid 7-sulfate treatment): 0.495 ± 0.167 µM | concentration at 15 min (in vivo; cholic acid 7-sulfate in the cecum, dosing with 1 mg): ~2500 µM | macrophage cell viability (macrophage): does not affect macrophage cell viability | blood glucose levels (DIO mice [2]): reduced blood glucose levels | systemic GLP-1 levels (DIO mice [2]): increased systemic GLP-1 levels | systemic GLP-1 levels (DIO mice [2]; [8]): induced GLP-1 levels | toxicity / viability of intestinal Caco-2 cells (Caco-2 cells): does not affect the viability | toxicity / viability of intestinal Caco-2 cells (Caco-2 cells; [7]): no toxicity | inflammation in vivo (inflammation in vivo): improves inflammation in vivo | stability at physiological pHs [3]: stable at physiological pHs | stability at physiological pHs [3, 7]: stable in a wide range of pHs | GLP-1 secretion in vitro (NCI-H716 cells [4]): induced GLP-1 secretion to a similar degree as TDCA in a dose-dependent manner | GLP-1 secretion in vitro (NCI-H716 cells [4]; [7]): induces GLP-1 secretion in vitro better than the known GLP-1 inducer TDCA | GLP-1 secretion in vitro by CA7S extracted from cecal contents of SG mice (NCI-H716 cells [4]): induced GLP-1 secretion in vitro | GLP-1 secretion in vitro by CA7S extracted from cecal contents of SG mice (NCI-H716 cells [4]; [8]): exhibit activity inducing GLP-1 secretion in vitro

C[C@H](CCC(=O)O)[C@H]1CC[C@H]2[C@@H]3[C@H](O)C[C@@H]4C[C@H](O)CC[C@]4(C)[C@H]3C[C@H](O)[C@]12C [CA, cholic acid, reference compound]
SULT2A1 expression (SULT2A1): did not induce SULT2A1 expression at all concentrations tested | GLP-1 secretion in vitro (NCI-H716 cells [4]): had no effect on GLP-1 secretion | GLP-1 secretion in vitro (NCI-H716 cells [4]; listed as cholic acid): had no effect

C[C@H](CCC(=O)O)[C@H]1CC[C@H]2[C@@H]3[C@H](O)C[C@@H]4C[C@H](O)CC[C@]4(C)[C@H]3CC[C@]12C [CDCA, chenodeoxycholic acid]
SULT2A1 expression (SULT2A1): did not induce SULT2A1 expression at all concentrations tested

COC(=O)CC[C@@H](C)[C@H]1CC[C@H]2[C@@H]3[C@H](NS(=O)(=O)O)[C@@H](O[Si](C)(C)C(C)(C)C)[C@@H]4C[C@H](O[Si](C)(C)C(C)(C)C)CC[C@]4(C)[C@H]3CC[C@]12C [Compound 3-8]
TGR5 expression (TGR5): induces TGR5 expression

C[C@H](CCC(=O)O)[C@H]1CC[C@H]2[C@@H]3[C@H](OP(=O)(O)O)C[C@@H]4C[C@H](O)CC[C@]4(C)[C@H]3C[C@H](O)[C@]12C [Compound 9, cholic acid-7-phosphate]
TGR5 expression (TGR5): induces TGR5 expression

COC(=O)CC[C@@H](C)[C@H]1CC[C@H]2[C@@H]3[C@H](OP(=O)(OCc4ccccc4)OCc4ccccc4)C[C@@H]4C[C@H](O[Si](C)(C)C(C)(C)C)CC[C@]4(C)[C@H]3CC[C@]12C [Compound 9-2]
TGR5 expression (TGR5): induces TGR5 expression

C[C@H](CCC(=O)O)[C@H]1CC[C@H]2[C@@H]3CC[C@@H]4C[C@H](O)CC[C@]4(C)[C@H]3CC[C@]12C [LCA, 3α-hydroxy-5β-cholan-24-oic acid]
Asbt expression in SI and DI (GF mice): inhibited expression of Asbt in SI and DI | VDR expression in liver (GF mice): increased expression | mSult2A1 expression in liver (GF mice): increased expression | LCA levels in intestine after feeding (GF mice; 1 week): accumulation of LCA in the proximal small intestine (SI), distal ileum (DI), and cecum | CA7S production and accumulation (GF mice; gallbladder and distal ileum): induced CA7S production and accumulation in the gallbladder (GB) and the DI | SULT2A1 expression (SULT2A1): induced SULT2A1; also recorded: could induce SULT2A1 expression in a dose dependent manner | ASBT expression (ASBT): inhibited expression of ASBT | CA7S levels in the gallbladder (DIO mice [5]): increase in CA7S levels in the gallbladder | SULT2A1 expression level in mouse liver (DIO mice [5]; two hours after injection): significant increase | VDR expression level in mouse liver (DIO mice [5]; two hours after injection): significant increase

C[C@H](CCC(=O)NCCS(=O)(=O)O)[C@H]1CC[C@H]2[C@@H]3CC[C@@H]4C[C@H](O)CC[C@]4(C)[C@H]3C[C@H](O)[C@]12C [TCDCA, taurodeoxycholic acid]
SULT2A1 expression (SULT2A1): did not induce SULT2A1 expression at all concentrations tested
